# In US20100016366A1, “Novel Compounds Active as Muscarinic Receptor Antagonists” (priority 2008, published 2010):
# Columns and labels:
# [1] = molecular target: T1, human muscarinic M3 receptor (Homo sapiens, UniProt P20309); experiment: hM3 competition binding assay (3H-NMS, CHO cell membranes); conditions: CHO cell membranes expressing human M3; 3H-NMS at 5×KD, 24 hr at RT; IC50 corrected by Cheng-Prussoff
# T1 construct: expressed in transfected cells; host or cells: CHO (CHO-K1) cells
# Protocol: Binding Affinity Assessment at the Human Recombinant M3 Muscarinic Receptor
# Cell Pellets from CHO (Chinese Hamster Ovary) cells recombinantly expressing the human muscarinic M3 receptor were homogenised in 20 mM HEPES (pH7.4) and centrifuged at 48000×g for 20 min at 4° C. The pellet was re-suspended in buffer and the homogenisation and centrifugation steps repeated. The resulting pellet was re-suspended in 1 ml buffer per 1 ml original packed cell volume and the homogenisation step repeated. Protein estimation was carried out on the suspension and 1 ml aliquots of ˜1 mg/ml frozen at −80° C.
# hM3 Competition Binding Assay Protocol
# Membranes (5 µg/well) were incubated with ^3H-NMS (at a concentration 5×KD) plus/minus test compound for 24 hr at RT (room temperature) in a 1 ml polystyrene 96-well deep well block. The final assay volume was 200 µl, comprising of: 20 µl plus/minus test compound; 20 µl ^3H-NMS (Perkin Elmer NEN 636) and 160 µl membrane solution. Total Binding was defined with 0.1% DMSO; Non-Specific Binding was defined with 1 µM Atropine. Assay buffer was 20 mM Hepes (pH 7.4).
# Once all assay components were added, plates were covered and incubated at room temperature for 24 hrs with shaking. The assay was terminated by rapidly filtering through GF/B Unifilter plates pre-soaked with 0.5% polyethylenimine, using a Packard filtermate harvester, the filter plate was then washed with 3×1 ml 4° C. assay buffer. The filter plates were dried at 45° C. for 1 hour. The bottoms of the filter plates were sealed and 50 µl/well of Microscint ‘0’ added, the top of the plates were sealed with a Topseal. Following 90 mins, the plates were read on an NXT Topcount (1 minute read time per well).
# The resulting data was expressed as a percentage of the specific binding (Specific binding=Total binding−Non-Specific Binding). % specific binding versus test compound concentration was plotted to determine an IC50 from a sigmoid curve using an in-house data analysis programme. IC50 values corrected to Ki values by applying the Cheng-Prussoff equation: […]
# where IC50 is the concentration of unlabelled drug which inhibits by 50% the specific radioligand binding. [L] is the free radioligand concentrations and KD and Ki are the equilibrium dissociation constants of the radioligand and unlabelled drug respectively.
# [2] = molecular target: T1, human muscarinic M3 receptor; experiment: Cell based potency assessment, hM3 β-lactamase assay (CHO cell β-lactamase); conditions: CHO cells recombinantly expressing human M3, NFAT-β-lactamase reporter; inhibition of 80 nM carbamyl choline signal, 4 h; IC50 converted by Cheng-Prusoff
# Protocol: Cell BASED POTENCY ASSESSMENT at the Human Recombinant M3 Muscarinic Receptor
# M3 potency was determined in CHO-K1 cells transfected with the NFAT-Betalactamase gene. CHO (Chinese Hamster Ovary) cells recombinantly expressing the human muscarinic M3 receptor were transfected with the NFAT_β-Lac_Zeo plasmid. Cells were grown in DMEM with Glutamax-1, supplemented with 25 mM HEPES (Life Technologies 32430-027), containing 10% FCS (Foetal Calf Serum; Sigma F-7524), […] Sodium pyruvate (Sigma S-8636), NEAA (non-Essential Amino Acids; Invitrogen 11140-035) and 200 μg/ml Zeocin (Invitrogen R250-01).
# hM3 β-Lactamase Assay Protocol
# Cells were harvested for assay when they reached 80-90% confluency using enzyme free cell Dissociation Solution (Life technologies 13151-014) incubated with the cells for 5 min at 37° C. in an atmosphere containing 5% CO2. Detached cells were collected in warmed growth media and centrifuged at 2000 rpm for 10 min, washed in PBS (Phosphate Buffered Saline; Life Technologies 14190-094) and centrifuged again as just described. The cells were re-suspended at 2×10^5 cells/ml in growth medium (composition as described above). 20 μl of this cell suspension was added to each well of a 384 well black clear bottomed plate (Greiner Bio One 781091-PFI). The assay buffer used was PBS supplemented with 0.05% Pluronic F-127 (Sigma 9003-11-6) and 2.5% DMSO. Muscarinic M3 receptor signalling was stimulated using 80 nM carbamyl choline (Aldrich N240-9) incubated with the cells for 4 h at 37° C./5% CO2 and monitored at the end of the incubation period using a Tecan SpectraFluor+plate reader (λ−excitation 405 nm, emission 450 nm and 503 nm). M3 receptor antagonists under test were added to the assay at the beginning of the 4 h incubation period and compound activity measured as the concentration dependent inhibition of the carbamyl choline induced signal. Inhibition curves were plotted and IC50 values generated using a 4-parameter sigmoid fit and converted to Ki values using the Cheng-Prusoff correction and the KD value for carbamyl choline in the assay.
# T1 sequence (P20309 whole entry): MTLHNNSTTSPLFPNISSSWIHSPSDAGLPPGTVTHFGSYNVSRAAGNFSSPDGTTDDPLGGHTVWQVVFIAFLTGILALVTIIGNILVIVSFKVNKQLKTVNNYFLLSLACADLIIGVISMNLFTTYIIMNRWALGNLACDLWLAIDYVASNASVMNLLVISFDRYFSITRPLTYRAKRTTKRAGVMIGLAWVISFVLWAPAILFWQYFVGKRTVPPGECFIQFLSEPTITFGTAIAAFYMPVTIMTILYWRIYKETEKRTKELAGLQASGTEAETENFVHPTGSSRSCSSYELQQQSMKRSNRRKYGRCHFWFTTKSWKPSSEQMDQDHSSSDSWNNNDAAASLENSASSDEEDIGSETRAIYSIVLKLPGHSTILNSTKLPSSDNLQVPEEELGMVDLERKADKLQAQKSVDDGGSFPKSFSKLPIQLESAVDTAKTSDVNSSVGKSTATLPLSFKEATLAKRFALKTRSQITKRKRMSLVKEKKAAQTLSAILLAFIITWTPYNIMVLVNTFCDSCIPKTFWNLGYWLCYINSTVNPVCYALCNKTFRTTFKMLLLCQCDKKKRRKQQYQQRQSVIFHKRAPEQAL
SMILES,Ki [1] [nM],Ki [2] [nM]
"CN(CCCCCCCCCN1CCC(OC(=O)Nc2ccccc2-c2ccccc2)CC1)C(=O)Cc1ccc(O)c(Cl)c1 [Example 15, Biphenyl-2-yl-carbamic acid 1-(9-{[2-(3-chloro-4-hydroxy-phenyl)-acetyl]-methyl-amino}-nonyl)-piperidin-4-yl ester]",2.37,0.396
"CN(CCCCCCCCCN1CCC(OC(=O)Nc2ccccc2-c2ccccc2)CC1)C(=O)c1ccc(F)c(O)c1 [Example 16, Biphenyl-2-yl-carbamic acid 1-{9-[(4-fluoro-3-hydroxy-benzoyl)-methyl-amino]-nonyl}-piperidin-4-yl ester]",2.98,0.389
"CN(CCCCCCCCCN1CCC(OC(=O)Nc2ccccc2-c2ccccc2)CC1)C(=O)c1ccc(O)c(Cl)c1 [Example 17, Biphenyl-2-yl-carbamic acid 1-{9-[(3-chloro-4-hydroxy-benzoyl)-methyl-amino]-nonyl}-piperidin-4-yl ester]",2.15,0.25
"CN(CCCCCCCCCN1CCC(OC(=O)Nc2ccccc2-c2ccccc2)CC1)C(=O)Cc1ccc(O)c(F)c1 [Example 18, Biphenyl-2-yl-carbamic acid 1-(9-{[2-(3-fluoro-4-hydroxy-phenyl)-acetyl]-methyl-amino}-nonyl)-piperidin-4-yl ester]",2.29,0.353
"O=C(Nc1ccccc1-c1ccccc1)OC1CCN(CCCCCCCCCNC(=O)c2ccc(Cl)c(O)c2)CC1 [Example 19, Biphenyl-2-yl-carbamic acid 1-[9-(4-chloro-3-hydroxy-benzoylamino)-nonyl]-piperidin-4-yl ester]",1.45,1.32
"O=C(Nc1ccccc1-c1ccccc1)OC1CCN(CCCCCCCCCNC(=O)c2ccc(O)cc2F)CC1 [Example 20, Biphenyl-2-yl-carbamic acid 1-[9-(2-fluoro-4-hydroxy-benzoylamino)-nonyl]-piperidin-4-yl ester]",1.95,0.918
"O=C(Nc1ccccc1-c1ccccc1)OC1CCN(CCCCCCCCCNC(=O)c2ccc(O)cc2Cl)CC1 [Example 21, Biphenyl-2-yl-carbamic acid 1-[9-(2-chloro-4-hydroxy-benzoylamino)-nonyl]-piperidin-4-yl ester]",1.26,0.682
"O=C(Nc1ccccc1-c1ccccc1)OC1CCN(CCCCCCCCCNCc2cc(Cl)c(O)c(Cl)c2)CC1 [Example 22, Biphenyl-2-yl-carbamic acid 1-[9-(3,5-dichloro-4-hydroxy-benzylamino)-nonyl]-piperidin-4-yl ester]",0.865,0.149
"O=C(Nc1ccccc1-c1ccccc1)OC1CCN(CCCCCCCCCNC(=O)c2ccc(O)c(F)c2F)CC1 [Example 23, Biphenyl-2-yl-carbamic acid 1-[9-(2,3-difluoro-4-hydroxy-benzoylamino)-nonyl]-piperidin-4-yl ester]",2.38,0.276
"O=C(Nc1ccccc1-c1ccccc1)OC1CCN(CCCCCCCCCNC(=O)c2cc(Cl)c(O)c(Cl)c2)CC1 [Example 25, Biphenyl-2-yl-carbamic acid 1-[9-(4-hydroxy-3,5-dichloro-benzoylamino)-nonyl]-piperidin-4-yl ester]",4.34,0.854
"O=C(Nc1ccccc1-c1ccccc1)OC1CCN(CCCCCCCCCNCc2cc(F)c(O)c(F)c2)CC1 [Example 27, Biphenyl-2-yl-carbamic acid 1-[9-(3,5-difluoro-4-hydroxy-benzylamino)-nonyl]-piperidin-4-yl ester]",1.1,0.208
"O=C(Nc1ccccc1-c1ccccc1)OC1CCN(CCCCCCCCCNCc2cc(Cl)c(Cl)cc2O)CC1 [Example 28, Biphenyl-2-yl-carbamic acid 1-[9-(2-hydroxy-4,5-dichloro-benzylamino)-nonyl]-piperidin-4-yl ester]",3.83,3.59
"O=C(Nc1ccccc1-c1ccccc1)OC1CCN(CCCCCCCCCNCc2cc(Cl)cc(Cl)c2O)CC1 [Example 31, Biphenyl-2-yl-carbamic acid 1-[9-(2-hydroxy-3,5-dichloro-benzylamino)-nonyl]-piperidin-4-yl ester]",2.47,0.728
"O=C(Nc1ccccc1-c1ccccc1)OC1CCN(CCCCCCCCCNCc2ccc(Cl)c(O)c2Cl)CC1 [Example 37, Biphenyl-2-yl-carbamic acid 1-[9-(2,4-dichloro-3-hydroxy-benzylamino)-nonyl]-piperidin-4-yl ester]",0.342,1.12

# More lines, now with the values ahead:
Ki [1] [nM],Ki [2] [nM],SMILES
1.35,0.816,"O=C(Nc1ccccc1-c1ccccc1)OC1CCN(CCCCCCCCCNCc2cc(F)cc(F)c2O)CC1 [Example 29, Biphenyl-2-yl-carbamic acid 1-[9-(2-hydroxy-3,5-difluoro-benzylamino)-nonyl]-piperidin-4-yl ester]"
1.31,0.705,"O=C(Nc1ccccc1-c1ccccc1)OC1CCN(CCCCCCCCCNCc2cccc(F)c2O)CC1 [Example 30, Biphenyl-2-yl-carbamic acid 1-[9-(2-hydroxy-3-fluoro-benzylamino)-nonyl]-piperidin-4-yl ester]"
3.04,1.34,"O=C(Nc1ccccc1-c1ccccc1)OC1CCN(CCCCCCCCCNCc2cc(Cl)ccc2O)CC1 [Example 32, Biphenyl-2-yl-carbamic acid 1-[9-(5-chloro-2-hydroxy-benzylamino)-nonyl]-piperidin-4-yl ester]"
6.04,2.72,"O=C(Nc1ccccc1-c1ccccc1)OC1CCN(CCCCCCCCCNCc2cc(F)c(Cl)cc2O)CC1 [Example 33, Biphenyl-2-yl-carbamic acid 1-[9-(2-hydroxy-4-chloro-5-fluoro-benzylamino)-nonyl]-piperidin-4-yl ester]"
0.787,0.96,"O=C(Nc1ccccc1-c1ccccc1)OC1CCN(CCCCCCCCCNCc2ccc(O)c(Cl)c2)CC1 [Example 34, Biphenyl-2-yl-carbamic acid 1-[9-(3-chloro-4-hydroxy-benzylamino)-nonyl]-piperidin-4-yl ester]"
1.38,1.64,"O=C(Nc1ccccc1-c1ccccc1)OC1CCN(CCCCCCCCCNCc2cc(F)ccc2O)CC1 [Example 35, Biphenyl-2-yl-carbamic acid 1-[9-(2-hydroxy-5-fluoro-benzylamino)-nonyl]-piperidin-4-yl ester]"
0.235,2.24,"O=C(Nc1ccccc1-c1ccccc1)OC1CCN(CCCCCCCCCNCc2ccc(F)c(O)c2)CC1 [Example 36, Biphenyl-2-yl-carbamic acid 1-[9-(3-hydroxy-4-fluoro-benzylamino)-nonyl]-piperidin-4-yl ester]"
0.175,1.48,"O=C(Nc1ccccc1-c1ccccc1)OC1CCN(CCCCCCCCCNCc2ccc(O)c(F)c2)CC1 [Example 38, Biphenyl-2-yl-carbamic acid 1-[9-(4-hydroxy-3-fluoro-benzylamino)-nonyl]-piperidin-4-yl ester]"
